Laboratory results published in PMC1664607 (PLoS Medicine, 2006).
In brackets after ≈: the same amount, converted by molar mass. Read-outs that look alike come from different tables or passages of the source.

What was measured:
[1] = test system: CYP1A1/2; assay: 7-Ethoxyresorufin O-deethylation in human liver microsomes; assay type: in vitro ADME; settings: 0.5 μM 7-ethoxyresorufin
[2] = test system: clinically isolated M. tuberculosis; assay: microbe, parasite or virus in culture; assay type: cell-based; settings: for MIC90: Mycobacterium tuberculosis, read-out: MIC90
[3] = Plasma levels in an experimental mouse model of TB; settings: in vivo, po
[4] = test system: M. tuberculosis ATCC 35812 (Kurono); assay: Susceptibility testing (agar dilution MIC); assay type: cell-based; settings: Mycobacterium tuberculosis, ATCC35812, 336 h; 7H11 agar, 37 °C, 14 d; read-out: MIC
[5] = test system: M. tuberculosis ATCC 25618 (H37Rv); assay: Susceptibility testing (agar dilution MIC); assay type: cell-based; settings: Mycobacterium tuberculosis, 336 h; 7H11 agar, 37 °C, 14 d; read-out: MIC
[6] = assay type: in vitro ADME, human, rat, mouse, dog, rabbit, and monkey; settings: 2 h
Protocol: The study was undertaken to investigate the metabolites produced by the metabolic reactions of OPC-67683 using human, rat, mouse, dog, rabbit, and monkey liver microsomes. Pooled human liver microsomes (20 mg/ml) from ten donors were prepared at the Biomedical Research Institute, Human and Animal Bridge Discussion Group (Chiba, Japan). Human liver samples were legally procured from the National Disease Research Interchange (http://www.ndriresource.org/) through the international partnership with the Human and Animal Bridge Discussion Group. The study was conducted in accordance with the Declaration of Helsinki.
The reactions were performed in duplicate in a shaking water bath at 37 °C for 2 h. The incubation mixtures were extracted with acetonitrile and ethyl acetate, and the samples were analyzed by HPLC and LC-ESI-MS/MS.

[7] = test system: intracellular M. tuberculosis H37Rv in THP-1 cells; assay: Activity against intracellular mycobacteria, 4-h pulsed exposure; assay type: cell-based, M. tuberculosis; human THP-1 cells; settings: further 68-h culture
[8] = test system: M. tuberculosis ATCC 35822 (H37Rv-H-R); assay: microbe, parasite or virus in culture; assay type: cell-based; settings: Mycobacterium tuberculosis, 336 h
[9] = test system: M. tuberculosis Kurono; assay: Therapeutic efficacy in an experimental mouse model of chronic TB; assay type: in vivo, ICR mice; settings: for Log of Viable Counts/Lung: mean ± S.D., n = 5
[10] = test system: mycolic acid synthesis in M. bovis BCG; assay: microbe, parasite or virus in culture; assay type: cell-based; settings: for IC50: Mycobacterium tuberculosis variant bovis BCG, BCG
[11] = test system: CYP2C8/9; assay: Tolubutamide methylhydroxylation in human liver microsomes; assay type: in vitro ADME; settings: 400 μM tolbutamide
[12] = test system: M. tuberculosis ATCC 35838 (H37Rv-R-R); assay: microbe, parasite or virus in culture; assay type: cell-based; settings: Mycobacterium tuberculosis, 336 h

C[C@]1(COc2ccc(N3CCC(Oc4ccc(OC(F)(F)F)cc4)CC3)cc2)Cn2cc([N+](=O)[O-])nc2O1 [OPC-67683, (R)-2-methyl-6-nitro-2-(4-[4-(4-trifluoromethoxyphenoxy)piperidin-1-yl]phenoxymethyl}-2,3-dihydroimidazo[2,1-b]oxazole]
Percent of Control ([1]; 10 μM): 98.4% of Control | Percent of Control ([1]; 30 μM): 102.5% of Control | Percent of Control ([1]; 100 μM): 98.6% of Control | MIC90 of OPC-67683 times lower than that of EB [2]: ~303 times | MIC90 of OPC-67683 times lower than that of INH [2]: eight | MIC90 of OPC-67683 times lower than that of RFP [2]: about 24 times | MIC90 of OPC-67683 times lower than that of SM [2]: ~244 times | MIC90 ([2]; EB-susceptible M. tuberculosis (56 strains)): 0.0121 µg/mL (≈ 0.0227 µM) | MIC90 ([2]; INH-susceptible M. tuberculosis (31 strains)): 0.0119 µg/mL (≈ 0.0223 µM) | MIC90 ([2]; RFP-susceptible M. tuberculosis (31 strains)): 0.0125 µg/mL (≈ 0.0233 µM) | MIC90 ([2]; SM-susceptible M. tuberculosis (49 strains)): 0.012 µg/mL (≈ 0.0225 µM) | MIC90 [2]: 0.012 µg/mL (≈ 0.0225 µM) | concentration at 1 h [3]: 133 ± 30 ng/mL | concentration at 2 h [3]: 193 ± 40 ng/mL | concentration at 4 h [3]: 220 ± 20 ng/mL | concentration at 6 h [3]: 297 ± 83 ng/mL | AUC(0-t) ([3]; 2.5 mg/kg): 4130 ng·h/mL | Cmax ([3]; 2.5 mg/kg): 297 ng/mL | Tmax ([3]; 2.5 mg/kg): 6 h | concentration at 12 h ([3]; 2.5 mg/kg): 166 ± 49 ng/mL | concentration at 24 h ([3]; 2.5 mg/kg): 49 ± 12 ng/mL | half-life ([3]; 2.5 mg/kg): 7.6 h | MIC [4]: 0.012 µg/mL (≈ 0.0225 µM) | MIC [5]: 0.012 µg/mL (≈ 0.0225 µM) | Stability in the in vitro metabolism of liver microsomes [6]: stable | Activity against intracellular M. tuberculosis H37Rv [7]: highly active | MIC [8]: 0.012 µg/mL (≈ 0.0225 µM) | Log of Viable Counts/Lung ([9]; 0.156 mg/kg once daily for 28 d (4 weeks)): 6.506 ± 0.294^a:NS, b:NS | Log of Viable Counts/Lung ([9]; 0.313 mg/kg once daily for 28 d (4 weeks)): 5.959 ± 0.436^a:**, b:** | Log of Viable Counts/Lung ([9]; 0.625 mg/kg once daily for 28 d (4 weeks)): 5.457 ± 0.245^a:**, b:** | Log of Viable Counts/Lung ([9]; 1.25 mg/kg once daily for 28 d (4 weeks)): 4.867 ± 0.400^a:**, b:** | Log of Viable Counts/Lung ([9]; 2.5 mg/kg once daily for 28 d (4 weeks)): 4.753 ± 0.297^a:**, b:** | Log of Viable Counts/Lung ([9]; 5 mg/kg once daily for 28 d (4 weeks)): 4.272 ± 0.463^a:**, b:** | Log of Viable Counts/Lung ([9]; 10 mg/kg once daily for 28 d (4 weeks)): 3.943 ± 0.465^a:**, b:** | Log of Viable Counts/Lung ([9]; 20 mg/kg once daily for 28 d (4 weeks)): 3.495 ± 0.522^a:**, b:** | Log of Viable Counts/Lung ([9]; 40 mg/kg once daily for 28 d (4 weeks)): 2.791 ± 0.671^a:**, b:** | Dose that could produce a CFU reduction of at least 95% ([9]; lung, once daily for 28 d): 0.625 mg/kg | IC50, α-Mycolic acid ([10]; 14C acetic acid incorporation, 60 min, TLC n = 3): >0.25 µg/mL | IC50 ([10]; 1 h, read-out: IC50, Fatty acid): > 0.25 µg/mL | IC50 ([10]; 1 h, read-out: IC50, Keto-mycolic acid): 0.021 µg/mL (≈ 0.0393 µM) | IC50 ([10]; 1 h, read-out: IC50, Methoxy-mycolic acid): 0.036 µg/mL (≈ 0.0674 µM) | IC50 ([10]; 1 h, read-out: IC50, α-Mycolic acid): > 0.25 µg/mL | IC50 ([10]; read-out: IC50 values, synthesis of methoxy- and keto-mycolic acid): 0.021 to 0.036 µg/mL (≈ 0.0393 to 0.0674 µM) | Percent of Control ([11]; 10 μM): 107.2% of Control | Percent of Control ([11]; 30 μM): 107.8% of Control | Percent of Control ([11]; 100 μM): 108.5% of Control | MIC [12]: 0.006 µg/mL (≈ 0.0112 µM)
